Experiments:
[1] = Study ZPS-603 Cohort 4: mood ratings (HAMA, FQ, MADRS) in patients with TRD/TRA; format: in vivo, human; conditions: study 603 cohort 4 participants (FIG. 7)
Protocol: The objective of Cohort 4 was to evaluate efficacy, safety, PK and PD of an extended release ketamine oral formulation in patients with treatment-resistant depression and/or treatment-resistant anxiety (TRD/TRA). […] The design was an open label multiple ascending dose study. The initial dose was 60 mg, and could be escalated by an additional 60 mg 12 hourly, based on assessment of mood symptoms, to a maximum dose of 240 mg, with a total of 7 doses given 12 hourly between 0 and 72 hours. Endpoints included safety, tolerability, ketamine and norketamine PK, and PD (mood ratings including the Fear Questionnaire (FQ; Marks 1979), HAMA and MADRS, and dissociative symptom rating scale scores).
Anxiety Rating Scales: HAMA and FQ: Individual and group mean HAMA and FQ scores by timepoint are shown in FIG. 6 (6A: HAMA; 6B: FQ) There was a consistent trend for both scores to decrease over time, most noticeably in patients with higher baseline scores. […] All seven participants were assessed to be treatment responders (>50% reduction) based on changes in
There was a consistent trend for scores to decrease over time, most noticeably in patients with higher baseline scores. All seven participants were assessed to be treatment responders (>50% reduction) based on change in MADRS scores. […]

[2] = injected by any route of administration, e.g. Loo 2016; cited from earlier work
[3] = subcutaneous dosing, unpublished data

In the case of `CNC1(c2ccccc2Cl)CCCCC1=O` (stereo not drawn) [Ketamine solution, 2-(2-chlorophenyl)-2-(methylamino) cyclohexan-1-one], the “onset of improvement of anxiety symptoms” value [1] is given as 1 to 2 h, the “duration of marked dissociative symptoms after dosing” value [2] is given as “up to 60 minutes” and the “Mean Tmax-ketamine” value [3] is given as 38.4 min.

Reference: patent US20260034065A1, “EXTENDED RELEASE PHARMACEUTICAL FORMULATION” (Douglas Pharmaceuticals Ltd., priority 2020, published 2026)
